Experimental data: patent US20220153766A1, “CONDENSED TRICYCLIC COMPOUND USED AS KINASE INHIBITOR” (Hangzhou Innogate Pharma Co., Ltd., priority 2019, published 2022)

Assays:
[1] = target: EGFR (C797S) (Homo sapiens, UniProt P00533, C797S); assay: EGFR (C797S) kinase activity inhibition, Lantha screen Assay; format: biochemical; details: kinase 10 nM, ATP 0.1 μM
Description: 1. EGFR (C797S) Kinase Activity Inhibition Experiment: The Lantha screen Assay method was used to test the inhibitory activity of the compounds at a kinase EGFR (C797S) concentration of 10 nM and an ATP concentration of 0.1 μM. The control samples were Staurosporine. Experimental Steps: […] 2) Control sample Staurosporine and test samples preparation: Staurosporine and the compounds of the embodiment of the present invention are formulated into a gradient concentration solution in 100% DMSO, and diluted to 10% DMSO with the above-mentioned buffer, and added to a 384-well plate. For example, if the initial concentration of the compound is 10 μM, 100% DMSO is used to prepare a 1000 μM solution, and 10 concentration gradients are diluted, and 100 nL solution is transferred to a 384-well plate with Echo*LIQUID HANDLE RS (LABCYTE, USA). […] Transfer 5 μL to the 384-well plate and incubate with the compound for 10-15 minutes. […] Transfer 5 μL to the 384-well plate to initiate the reaction, and incubate at room temperature for 30 minutes. [table] 5) Use TR-Fret dilution buffer to prepare 2-fold detection solution. The final concentration of Antibody is 2 nM and the final concentration of EDTA is 10 mM. Transfer 10 μL of detection solution to the reaction wells of the 384-well plate, shake and mix, and incubate at room temperature for 60 min. 6) Read the ratio of excitation at 340 nm and emission at 520 nm to 495 nm on Envision, and calculate the inhibition rate. 7) Fit IC50 with XL-fit software.

[2] = target: ALK (Homo sapiens, UniProt Q9UM73); assay: ALK kinase activity inhibition, Caliper mobility shift assay, method 1; format: biochemical
Sequence of ALK (Q9UM73 19-1620): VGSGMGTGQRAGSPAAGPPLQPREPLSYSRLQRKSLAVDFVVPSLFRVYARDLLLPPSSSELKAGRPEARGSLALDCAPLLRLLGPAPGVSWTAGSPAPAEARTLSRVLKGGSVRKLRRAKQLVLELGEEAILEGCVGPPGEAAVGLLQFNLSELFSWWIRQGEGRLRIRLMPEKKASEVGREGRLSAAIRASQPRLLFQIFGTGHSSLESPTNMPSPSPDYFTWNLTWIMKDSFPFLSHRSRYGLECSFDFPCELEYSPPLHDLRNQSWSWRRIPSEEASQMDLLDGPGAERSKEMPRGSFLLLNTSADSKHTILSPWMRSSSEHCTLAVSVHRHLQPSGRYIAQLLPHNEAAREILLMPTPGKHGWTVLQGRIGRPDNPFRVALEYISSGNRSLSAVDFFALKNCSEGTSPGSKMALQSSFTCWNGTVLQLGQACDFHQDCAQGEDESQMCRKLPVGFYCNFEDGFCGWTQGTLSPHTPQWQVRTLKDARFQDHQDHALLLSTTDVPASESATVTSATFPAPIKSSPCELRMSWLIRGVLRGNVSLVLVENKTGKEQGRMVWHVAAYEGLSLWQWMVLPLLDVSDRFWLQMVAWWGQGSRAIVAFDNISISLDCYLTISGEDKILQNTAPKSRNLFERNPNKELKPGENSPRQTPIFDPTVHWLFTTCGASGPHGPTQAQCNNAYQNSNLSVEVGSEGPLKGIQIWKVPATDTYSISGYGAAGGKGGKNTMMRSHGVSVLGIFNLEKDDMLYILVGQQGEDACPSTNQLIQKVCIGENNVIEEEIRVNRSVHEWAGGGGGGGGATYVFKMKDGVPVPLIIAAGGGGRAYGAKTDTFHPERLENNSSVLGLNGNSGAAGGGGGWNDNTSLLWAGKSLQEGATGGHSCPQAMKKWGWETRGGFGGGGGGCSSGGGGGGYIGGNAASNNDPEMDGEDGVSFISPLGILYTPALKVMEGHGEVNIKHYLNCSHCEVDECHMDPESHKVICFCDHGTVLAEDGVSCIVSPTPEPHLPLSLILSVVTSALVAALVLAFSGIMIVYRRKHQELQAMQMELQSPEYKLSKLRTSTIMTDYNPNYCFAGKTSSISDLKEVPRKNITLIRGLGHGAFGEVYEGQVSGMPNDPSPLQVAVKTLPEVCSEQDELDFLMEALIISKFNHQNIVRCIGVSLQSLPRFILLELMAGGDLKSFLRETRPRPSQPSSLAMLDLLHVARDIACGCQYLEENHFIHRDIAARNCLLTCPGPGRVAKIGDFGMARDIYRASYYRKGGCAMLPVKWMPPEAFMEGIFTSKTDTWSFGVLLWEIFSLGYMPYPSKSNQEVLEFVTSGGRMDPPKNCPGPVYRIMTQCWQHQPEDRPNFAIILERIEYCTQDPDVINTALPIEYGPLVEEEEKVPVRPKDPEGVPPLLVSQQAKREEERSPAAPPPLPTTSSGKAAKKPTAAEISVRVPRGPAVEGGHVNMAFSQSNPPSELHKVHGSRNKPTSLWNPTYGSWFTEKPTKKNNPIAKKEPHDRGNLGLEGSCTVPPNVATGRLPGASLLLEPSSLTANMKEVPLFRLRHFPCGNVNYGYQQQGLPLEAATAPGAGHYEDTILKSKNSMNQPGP
Description: 2. ALK Kinase Activity Inhibition Experiment: Method 1: In vitro enzymatic activity of ALK was measured using Caliper mobility shift assay. […] Add 10 μL of 2.5-fold enzyme solution and incubate at room temperature for 10 minutes, then add 10 μL of 2.5-fold substrates (Peptide FAM-P22 and ATP) solution. […] Read conversion rate data on Caliper EZ Reader II (Caliper Life Sciences). Convert the conversion rate into inhibition rate (% inhibition=(max−conversion rate)/(max−min)*100). Max refers to the conversion rate of the DMSO control, and min refers to the conversion rate without enzyme activity. With the compound concentration and inhibition rate on the abscissa and ordinate, draw the curve, use XLFit excel add-in version 5.4.0.8 software to fit the curve and calculate the IC50.

[3] = target: Ba/F3_EGFR del19/T790M/C797S cells (Homo sapiens, UniProt P00533, T790M/C797S, cells depend on it, form not given); assay: Ba/F3_EGFR (del19-T790M-C797S) cell proliferation inhibition, CTG, method 1; format: cell-based; details: 700 cells/well, 72 h, read-out: Ba/F3_EGFR (del19-T790M-C797S) cell proliferation inhibition (IC50 value) Method 1
Sequence of Ba/F3_EGFR del19/T790M/C797S cells (P00533 with tags, fused parts or gaps DEL746-750/T790M/C797S, form open): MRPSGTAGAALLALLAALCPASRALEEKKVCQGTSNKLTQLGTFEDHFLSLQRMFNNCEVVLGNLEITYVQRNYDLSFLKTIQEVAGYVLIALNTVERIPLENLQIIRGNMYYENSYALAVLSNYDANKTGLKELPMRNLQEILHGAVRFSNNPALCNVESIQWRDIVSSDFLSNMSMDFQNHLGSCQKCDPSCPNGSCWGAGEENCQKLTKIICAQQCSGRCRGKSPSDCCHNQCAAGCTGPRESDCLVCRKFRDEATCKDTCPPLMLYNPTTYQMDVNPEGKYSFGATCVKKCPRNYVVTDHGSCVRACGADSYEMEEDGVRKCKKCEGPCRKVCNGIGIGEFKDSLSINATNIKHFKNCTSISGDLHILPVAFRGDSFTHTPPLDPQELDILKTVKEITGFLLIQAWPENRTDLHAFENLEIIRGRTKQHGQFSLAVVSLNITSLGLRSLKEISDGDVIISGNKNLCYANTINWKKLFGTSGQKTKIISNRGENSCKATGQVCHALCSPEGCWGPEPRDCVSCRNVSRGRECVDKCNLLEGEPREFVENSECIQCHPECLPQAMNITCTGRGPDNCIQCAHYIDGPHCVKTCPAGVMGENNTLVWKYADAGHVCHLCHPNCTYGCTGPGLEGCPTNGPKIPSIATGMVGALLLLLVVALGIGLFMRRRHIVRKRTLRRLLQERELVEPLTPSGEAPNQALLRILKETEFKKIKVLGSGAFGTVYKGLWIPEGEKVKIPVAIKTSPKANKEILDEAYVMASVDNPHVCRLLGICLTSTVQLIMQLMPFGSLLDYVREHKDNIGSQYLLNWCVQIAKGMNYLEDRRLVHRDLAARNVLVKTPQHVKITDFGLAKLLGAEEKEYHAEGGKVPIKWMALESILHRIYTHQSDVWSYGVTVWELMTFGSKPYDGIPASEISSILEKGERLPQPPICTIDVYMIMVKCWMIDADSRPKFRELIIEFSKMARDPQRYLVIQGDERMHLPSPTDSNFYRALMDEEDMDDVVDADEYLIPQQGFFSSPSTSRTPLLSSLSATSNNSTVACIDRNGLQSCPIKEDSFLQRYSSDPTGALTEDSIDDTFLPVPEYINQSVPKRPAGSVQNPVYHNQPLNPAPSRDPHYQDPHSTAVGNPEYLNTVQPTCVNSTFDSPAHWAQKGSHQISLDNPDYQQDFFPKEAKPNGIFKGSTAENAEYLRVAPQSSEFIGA
Description: The cells were cultured in a 37° C., 5% CO2 incubator.
Cell plating and compound treatment: 1) Cells are routinely cultured until the cell saturation is 80%-90%, and when the number reaches the requirement, the cells are collected. 2) Resuspend in the corresponding fresh medium, take a small amount of cells to count, and prepare a cell suspension with a suitable density. 3) Inoculate the cell suspension into a 384-well plate at 700 cells/well, 30 μL per well. 4) Use Echo to add the compound to the corresponding cell well. The maximum starting concentration of the compound is 1-10 μM, 3 folds dilution, 8 concentrations.
CTG method detection: 1) Add 30 μL of CTG reagent (CelltiterGlo kit) to each well, and let it stand for 30 minutes at 37° C. and 5% CO2 in the dark. 2) Use Envision instrument to read the chemiluminescence signal value.
Data analysis: IC50 results are analyzed by GraphPad Prism 6 software. […] X: log value of compound concentration; Y: inhibition rate (% inhibition); inhibition rate (% inhibition)=(blank control well reading−compound well reading)/(blank control well reading−positive control reading)×100.

[4] = target: MAP4K1 (HPK1) (Homo sapiens, UniProt Q92918); assay: MAP4K1 (HPK1) kinase activity inhibition, Caliper mobility shift assay; format: biochemical; details: kinase 1.25 nM, ATP 10.1 μM
Sequence of MAP4K1 (HPK1) (Q92918 whole entry): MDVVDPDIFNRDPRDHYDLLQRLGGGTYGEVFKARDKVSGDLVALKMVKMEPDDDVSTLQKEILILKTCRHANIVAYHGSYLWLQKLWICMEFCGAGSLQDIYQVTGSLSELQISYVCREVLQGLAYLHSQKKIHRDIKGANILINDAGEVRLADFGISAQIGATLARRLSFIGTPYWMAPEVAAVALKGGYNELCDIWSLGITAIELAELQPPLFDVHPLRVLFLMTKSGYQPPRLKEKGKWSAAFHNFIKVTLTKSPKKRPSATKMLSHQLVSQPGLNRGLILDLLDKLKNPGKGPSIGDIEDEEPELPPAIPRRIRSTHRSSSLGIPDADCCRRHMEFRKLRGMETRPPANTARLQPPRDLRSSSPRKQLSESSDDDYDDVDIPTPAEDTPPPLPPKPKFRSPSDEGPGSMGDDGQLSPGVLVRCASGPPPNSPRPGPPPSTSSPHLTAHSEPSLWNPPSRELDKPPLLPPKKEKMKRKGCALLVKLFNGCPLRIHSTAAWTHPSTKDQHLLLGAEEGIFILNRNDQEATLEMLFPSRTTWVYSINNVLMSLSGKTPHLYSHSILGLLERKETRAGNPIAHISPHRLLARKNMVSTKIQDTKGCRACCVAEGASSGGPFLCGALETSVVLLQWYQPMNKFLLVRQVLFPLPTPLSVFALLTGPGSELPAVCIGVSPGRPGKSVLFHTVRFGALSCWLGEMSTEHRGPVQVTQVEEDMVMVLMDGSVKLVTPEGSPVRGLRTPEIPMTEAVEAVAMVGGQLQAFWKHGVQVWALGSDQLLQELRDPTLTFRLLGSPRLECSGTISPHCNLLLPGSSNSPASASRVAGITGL
Description: 4. MAP4K1 (HPK1) Kinase Activity Inhibition Experiment: Caliper mobility shift assay was used to detect the inhibitory effect of the compound on MAP4K1 (HPK1) kinase activity. The test concentration of the compound starts at 500 nM, and is diluted 5 folds into 5 concentration points. Use a dispenser Echo 550 to transfer 250 nL 100-fold final concentration of the compound to the target plate 3573, add 10 μL of MAP4K1 (HPK1) kinase solution with a final concentration of 1.25 nM, and incubate for 10 minutes at room temperature (the negative control well contains 10 μL kinase buffer and 250 nL 100% DMSO; the positive control well contains 10 μL kinase solution and 250 nL 100% DMSO). On the kinase MAP4K1 (HPK1), add 15 μL of ATP with a final concentration of 10.1 μM and 3 μM substrate peptide No. 25 mixed solution to react for 120 minutes. Add 30 μL of stop solution containing EDTA to stop the kinase reaction. Use Caliper EZ Reader to read the conversion rate. Inhibition rate %=(Average positive control conversion rate %−Sample conversion rate %/(Average positive control conversion rate %−Average negative control conversion rate %). Among them: negative control wells represent the conversion rate readings without enzyme activity; positive control wells represent the conversion rate readings of wells without compound inhibition. Take the log value of the concentration as the X-axis, and the percentage inhibition rate on the Y-axis. Log (inhibitor) vs. response—Variable slope of analysis software GraphPad Prism 5 was used to fit the curve to obtain the IC50 value of each compound on the enzyme activity. Calculation formula: Y=Bottom+(Top−Bottom)/(1+10 ^((Log IC50−X)*HillSlope)).

[5] = Pharmacokinetic study in rats after intragastrical administration; format: in vivo; details: male, rat, plasma, po, SD rats, 4 mg/kg
Description: Example 55: Pharmacokinetic Study in Rats
Instruments: XEVO TQ-S LC/MS instrument produced by Waters. All measurement data is collected and processed by Masslynx V4.1 software, and the data is calculated and processed by Microsoft Excel. Using WinNonLin 8.0 software, the statistical moment method was used to calculate the pharmacokinetic parameters. Mainly include kinetic parameters Tmax, T1/2, Cmax, AUClast etc. […] Injection volume: 5 μL.
Animals: 3 male SD rats with a weight range of 200-220 g. After purchase, they will be kept in the laboratory of the Experimental Animal Center for 2 days and then used. They will be fasted for 12 hours predose and 4 hours after dosing. Drinking water is free during the test. After the rats were gavage, blood samples were taken according to the established time point.
Solvent: 0.5% Methylcellulose (aqueous solution containing 0.4% Tween 80 and 1% ethanol). Preparation of the solution for intragastrical administration: accurately weigh the compound, add it to the solvent, and ultrasonically at room temperature for 5 minutes to completely dissolve the drug, and prepare a 0.3 mg/ml medicinal solution.
Pharmaceutical samples: representative compounds of the structure shown in the patented formula (I) of the present invention, generally, multiple samples with similar structures (with a molecular weight difference of more than 2 units) are taken, accurately weighed, and administered together (cassette PK). In this way, multiple compounds can be screened at the same time and their oral absorption rates can be compared. A single administration was also used to study the pharmacokinetics of the drug sample in rats.
After intragastrical administration, blood was taken from the orbit at 0.25, 0.5, 1, 2, 4, 9, 12 and 24 hours, and placed in a plastic centrifuge tube pretreated with sodium heparin. After centrifugation, the supernatant plasma was used for LC-MS/MS analysis.
Accurately weigh the compounds to prepare different concentrations, perform quantitative analysis on mass spectrometry to establish a standard curve, and then test the concentration of the above-mentioned compound in the plasma to obtain the compound concentration at different time points. All measurement data are collected and processed by relevant software, and the statistical moment method is used to calculate the pharmacokinetic parameters (mainly including kinetic parameters Tmax, T1/2, Cmax, AUClast etc). The results are as follows:
Table 7: Pharmacokinetic Parameters of the Compounds after Intragastrical Administration in SD Rats

Sequence of EGFR (C797S) (P00533 25-1210 C797S): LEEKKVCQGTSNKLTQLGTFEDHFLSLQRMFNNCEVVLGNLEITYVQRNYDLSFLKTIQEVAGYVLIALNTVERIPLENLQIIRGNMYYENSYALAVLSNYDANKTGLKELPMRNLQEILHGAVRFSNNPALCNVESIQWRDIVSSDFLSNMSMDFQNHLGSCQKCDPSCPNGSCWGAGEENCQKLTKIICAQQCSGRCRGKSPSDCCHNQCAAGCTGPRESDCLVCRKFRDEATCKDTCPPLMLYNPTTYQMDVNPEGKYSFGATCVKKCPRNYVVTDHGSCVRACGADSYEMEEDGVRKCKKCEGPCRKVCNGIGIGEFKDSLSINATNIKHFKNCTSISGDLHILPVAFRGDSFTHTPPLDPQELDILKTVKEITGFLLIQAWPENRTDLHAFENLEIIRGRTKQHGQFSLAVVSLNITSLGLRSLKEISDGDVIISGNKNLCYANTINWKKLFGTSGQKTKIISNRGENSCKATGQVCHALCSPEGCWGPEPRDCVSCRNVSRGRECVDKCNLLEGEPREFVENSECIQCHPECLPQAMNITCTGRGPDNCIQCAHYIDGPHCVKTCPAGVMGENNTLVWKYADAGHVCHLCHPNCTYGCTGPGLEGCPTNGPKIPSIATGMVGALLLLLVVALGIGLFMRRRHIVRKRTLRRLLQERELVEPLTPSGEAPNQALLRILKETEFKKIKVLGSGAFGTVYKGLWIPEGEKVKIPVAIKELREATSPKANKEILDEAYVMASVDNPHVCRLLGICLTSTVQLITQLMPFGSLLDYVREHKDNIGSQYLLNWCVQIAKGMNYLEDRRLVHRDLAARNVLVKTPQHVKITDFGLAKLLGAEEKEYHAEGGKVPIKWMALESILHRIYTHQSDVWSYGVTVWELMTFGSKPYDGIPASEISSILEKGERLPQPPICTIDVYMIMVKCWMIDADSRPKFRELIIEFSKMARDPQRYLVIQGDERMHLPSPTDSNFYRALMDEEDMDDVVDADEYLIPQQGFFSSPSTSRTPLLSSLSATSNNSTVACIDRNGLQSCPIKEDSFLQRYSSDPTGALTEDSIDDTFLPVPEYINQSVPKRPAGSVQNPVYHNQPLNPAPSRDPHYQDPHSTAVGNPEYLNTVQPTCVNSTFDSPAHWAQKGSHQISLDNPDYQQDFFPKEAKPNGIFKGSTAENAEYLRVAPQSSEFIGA

| IC50 [1] | IC50 [2] | GI50 [3] | Compound | further results |
| --- | --- | --- | --- | --- |
| 50 to 250 nM | 1 to 50 nM | – | CP(C)(=O)c1ccccc1Nc1nc(Nc2ccc3c(c2)OC[C@@H]2COCCN32)ncc1Cl [Compound 12S] | – |
| 50 to 250 nM | 1 to 50 nM | 100 to 200 nM | CC(=O)N1CCN2c3ccc(Nc4ncc(Cl)c(Nc5ccccc5P(C)(C)=O)n4)cc3OC[C@H]2C1 [Compound 5R] | – |
| 50 to 250 nM | 1 to 50 nM | – | CP(C)(=O)c1ccccc1Nc1nc(Nc2ccc3c(c2)OC[C@H]2CN(CCO)CCN32)ncc1Cl [Compound 7R] | – |
| 50 to 250 nM | 50 to 250 nM | 20 to 100 nM | CP(C)(=O)c1ccccc1Nc1nc(Nc2ccc3c(c2)OC[C@H]2CN(CC(F)(F)F)CCN32)ncc1Cl [Compound 13R] | – |
| 250 to 1000 nM | 1 to 50 nM | 20 to 100 nM | CP(C)(=O)c1ccccc1Nc1nc(Nc2ccc3c(c2)OC[C@H]2CN(CC#N)CCN32)ncc1Cl [Compound 9R] | – |
| 1 to 50 nM | 1 to 50 nM | – | CN1CCN2c3ccc(Nc4ncc(Cl)c(Nc5ccccc5P(C)(C)=O)n4)cc3OCC2C1 (racemic) [Compound 1] | – |
| 50 to 250 nM | 50 to 250 nM | – | CP(C)(=O)c1ccccc1Nc1nc(Nc2ccc3c(c2)OC[C@H]2CN(c4cccnc4)CCN32)ncc1Cl [Compound 15R] | IC50 [4]: 1 to 10 nM |
| 1 to 50 nM | 1 to 50 nM | 20 to 100 nM | CCN1CCN2c3ccc(Nc4ncc(Cl)c(Nc5ccccc5P(C)(C)=O)n4)cc3OC[C@H]2C1 [Compound 8R] | – |
| 1 to 50 nM | 1 to 50 nM | < 20 nM | CN1CCN2c3ccc(Nc4ncc(Cl)c(Nc5ccccc5P(C)(C)=O)n4)cc3OC[C@@H]2C1 [Compound 1S] | – |
| 1 to 50 nM | 1 to 50 nM | < 20 nM | CN1CCN2c3ccc(Nc4ncc(Cl)c(Nc5ccccc5P(C)(C)=O)n4)cc3OC[C@H]2C1 [Compound 1R] | Cmax [5]: 23.1 ng/mL; Tmax [5]: 1.08 h; half-life [5]: 12.7 h; AUC(0-t) ([5]; read-out: AUC0-24 h): 102 ng·h/mL |

More lines, now with the values behind:

| Compound | IC50 [1] | IC50 [2] | GI50 [3] | further results |
| --- | --- | --- | --- | --- |
| CN1CCC(N2CCN3c4ccc(Nc5ncc(Cl)c(Nc6ccccc6P(C)(C)=O)n5)cc4OC[C@H]3C2)CC1 [Compound 11R] | 1 to 50 nM | 1 to 50 nM | < 20 nM | – |
| COCCN1CCN2c3ccc(Nc4ncc(Cl)c(Nc5ccccc5P(C)(C)=O)n4)cc3OC[C@H]2C1 [Compound 10R] | 1 to 50 nM | 1 to 50 nM | 20 to 100 nM | – |
| C=CS(=O)(=O)N1CCN2c3ccc(Nc4ncc(Cl)c(Nc5ccccc5P(C)(C)=O)n4)cc3OC[C@H]2C1 [Compound 19R] | – | – | < 20 nM | IC50 [4]: ≤ 1 nM |
| CP(C)(=O)c1ccccc1Nc1nc(Nc2ccc3c(c2)OC[C@@H]2CNCCN32)ncc1Cl [Compound 4S] | 1 to 50 nM | 1 to 50 nM | 20 to 100 nM | – |
| COC/C=C/C(=O)N1CCN2c3ccc(Nc4ncc(Cl)c(Nc5ccccc5P(C)(C)=O)n4)cc3OC[C@H]2C1 [Compound 20R] | – | – | 20 to 100 nM | – |
| Cc1cc(Nc2ncc(Cl)c(Nc3ccccc3P(C)(C)=O)n2)cc2c1OC[C@@H]1CNCCN21 [Compound 24S] | – | – | 20 to 100 nM | – |
| C=CC(=O)N1CCN2c3ccc(Nc4ncc(Cl)c(Nc5ccccc5P(C)(C)=O)n4)cc3OC[C@@H]2C1 [Compound 6S] | 1 to 50 nM | 1 to 50 nM | 20 to 100 nM | – |
| CP(C)(=O)c1ccccc1Nc1nc(Nc2ccc3c(c2)OC[C@H]2CN(C4CCOCC4)CCN32)ncc1Cl [Compound 3R] | 1 to 50 nM | 1 to 50 nM | 20 to 100 nM | – |
| CN(C)CCN1CCN2c3ccc(Nc4ncc(Cl)c(Nc5ccccc5P(C)(C)=O)n4)cc3OC[C@H]2C1 [Compound 14R] | 50 to 250 nM | 50 to 250 nM | 100 to 200 nM | IC50 [4]: 1 to 10 nM |
| C=CC(=O)N1CCN2c3ccc(Nc4ncc(Cl)c(Nc5ccccc5P(C)(C)=O)n4)cc3OC[C@H]2C1 [Compound 6R] | 50 to 250 nM | 1 to 50 nM | 20 to 100 nM | – |
| CP(C)(=O)c1ccccc1Nc1nc(Nc2ccc3c(c2)OC[C@H]2CN(S(=O)(=O)C4CC4)CCN32)ncc1Cl [Compound 2R] | 50 to 250 nM | 1 to 50 nM | 20 to 100 nM | – |
| COCCCC(=O)N1CCN2c3ccc(Nc4ncc(Cl)c(Nc5ccccc5P(C)(C)=O)n4)cc3OC[C@H]2C1 [Compound 28R] | – | – | 20 to 100 nM | – |
| CP(C)(=O)c1ccccc1Nc1nc(Nc2ccc3c(c2)OC[C@H]2CNCCN32)ncc1Cl [Compound 4R] | 1 to 50 nM | 1 to 50 nM | 20 to 100 nM | – |
| C#CC(=O)N1CCN2c3ccc(Nc4ncc(Cl)c(Nc5ccccc5P(C)(C)=O)n4)cc3OC[C@H]2C1 [Compound 17R] | – | – | < 20 nM | – |
| Cc1cc(Nc2ncc(Cl)c(Nc3ccccc3P(C)(C)=O)n2)cc2c1N1CCNC[C@@H]1CO2 [Compound 23R] | – | – | 20 to 100 nM | – |
